Reference: patent US11285156B2, “Substituted piperazines as KRAS G12C inhibitors” (Amgen Inc., priority 2018, dated 2022)
Read-outs that look alike come from different tables or passages of the source.

Assays:
[1] = biological target: GDP-bound KRAS protein (aa 1-169), containing both G12C and C118A amino acid substitutions (Homo sapiens (Human), UniProt P01116, C118A/G12C); test: Coupled nucleotide exchange assay (SOS-mediated nucleotide exchange, AlphaScreen); assay type: biochemical; conditions: 5 min compound pre-incubation; for IC50: read-out: Coupled exchange IC50 (5 min; μM)
GDP-bound KRAS protein (aa 1-169), containing both G12C and C118A amino acid substitutions, sequence (P01116 other isoform, or with tags, fused parts or gaps G12C/C118A): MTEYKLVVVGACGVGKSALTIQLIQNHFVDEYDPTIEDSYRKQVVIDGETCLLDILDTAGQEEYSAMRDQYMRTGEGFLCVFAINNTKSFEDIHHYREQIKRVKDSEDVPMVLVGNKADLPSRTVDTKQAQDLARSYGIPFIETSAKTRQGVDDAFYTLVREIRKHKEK

[2] = test system: Phosphorylation of ERK1/2 in MIA PaCa-2 cells; test: Phospho-ERK1/2 MSD assay in MIA PaCa-2 cells; assay type: cell-based; conditions: read-out: p-ERK IC50 (2 h, MiaPaCa-2; μM)
Procedure, shortened: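 Phospho-ERK1/2 measured by MSD electrochemiluminescence kit in RIPA lysates of MIA PaCa-2 cells. Cells were treated with compound titrations for 2 or 4 h at 37 °C, 5% CO2, followed by a 10 min pulse of 10 ng/mL EGF.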

[3] = test system: Phosphorylation of ERK1/2 in A549 cells; test: Phospho-ERK1/2 MSD assay in A549 cells; assay type: cell-based; conditions: read-out: p-ERK IC50 (2 h, A549; μM)
Procedure, shortened: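 Dose-response treatment lasted 2 or 4 h in RPMI 1640/10% FBS at 37 °C. EGF-stimulated (10 ng/mL, 10 min) ERK1/2 phosphorylation was then quantified in cell lysates with a Meso Scale Discovery phospho-ERK1/2 assay.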

[4] = Homo sapiens, MIA PaCa-2, 2 h, 2 h compound treatment, MIA PaCa-2 cells, EGF stimulated
[5] = Homo sapiens, A549, 2 h, 2 h compound treatment, A549 cells, EGF stimulated
[6] = 2 h compound treatment, MIA PaCa-2 cells, EGF stimulated
[7] = 2 h compound treatment, A549 cells, EGF stimulated

SMILES	IC50 [1] [µM]	IC50 [2, 4] [µM]	IC50 [3, 5] [µM]	Coupled exchange IC50 (5 min; μM) [1] [µM]	IC50 [2, 6] [µM]	IC50 [3, 7] [µM]	IC50 ([2]; Homo sapiens, MIA PaCa-2, 2 h) [µM]	IC50 ([3]; Homo sapiens, A549, 2 h) [µM]
C=CC(=O)N1C[C@H](C)N(c2nc(=O)n(-c3c(C)ccnc3C(C)C)c3nc(-c4cccc(F)c4C(F)(F)F)c(Cl)cc23)C[C@H]1C (atropisomer, axis not shown; (M)) [Example 92-63, (M)-6-Chloro-4-[(2S,5R)-2,5-dimethyl-4-prop-2-enoyl-piperazin-1-yl]-7-[3-fluoro-2-(trifluoromethyl)phenyl]-1-(2-isopropyl-4-methyl-3-pyridyl)pyrido [2,3-d]pyrimidin-2-one]	0.039	0.052	> 7.5					
C=CC(=O)N1C[C@H](C)N(c2nc(=O)n(-c3c(C)ccnc3C(C)C)c3nc(-c4ccccc4C(C)O)c(Cl)cc23)C[C@H]1C (mixture of isomers) [Example 92-43, (M)-6-Chloro-4-[(2S,5R)-2,5-dimethyl-4-prop-2-enoyl-piperazin-1-yl]-7-[2-[(1RS)-1-hydroxyethyl]phenyl]-1-(2-isopropyl-4-methyl-3-pyridyl)pyrido [2,3-d]pyrimidin-2-one]		0.076	> 7.5	0.054				
C=CC(=O)N1C[C@H](C)N(c2nc(=O)n3c4nc(c(Cl)cc24)-c2ccccc2C/C=C/Cc2ccccc2-3)C[C@H]1C (single isomer, unassigned) [Example 146-3-2]	4.4	1.05	> 7.5					
C=CC(=O)N1C[C@H](C)N(c2nc(=O)n(-c3c(C)ccnc3C(C)C)c3nc(-c4cccc(F)c4NC(C)=O)c(Cl)cc23)C[C@H]1C [Example 129-12, N[2-(6-Chloro-4-[(2S,5R)-2,5-dimethyl-4-prop-2-enoyl-piperazin-1-yl]-1-(2-isopropyl-4-methyl-3-pvridyl)-2-oxo-pyrido[2,3-d]pyrimidin-7-yl]-6-fluoro-phenyl]acetamide]	0.167	0.39	> 7.5					
C=CC(=O)N1C[C@H](C)N(c2nc(=O)n(-c3c(C)nc(N(C)C)nc3C(C)C)c3nc(-c4ccccc4F)c(Cl)cc23)C[C@H]1C (single isomer, unassigned) [Example 196]		0.097	> 7.5	0.048				
C=CC(=O)N1C[C@H](C)N(c2nc(=O)n(-c3c(C(C)C)ncnc3C3CC3)c3nc(-c4ccccc4F)c(Cl)cc23)C[C@H]1C (single isomer, unassigned) [Example 108-1-1]	0.006				0.021	> 7.5		
C=CC(=O)N1CCN(c2nc(=O)n(CC(C)(C)C)c3nc(-c4ccccc4F)c(Cl)cc23)C[C@@H]1CO [Example 106-3, 6-Chloro-1-(2,2-dimethylpropyl)-7-(2-fluorophenyl)-4-[(3R)-3-(hydroxymethyl)-4-prop-2-enoyl-piperazin-1-yl]pyrido[2,3-d]pyrimidin-2-one]	8.34	10	> 7.5					
C=CC(=O)N1C[C@H](C)N(c2nc(=O)n(-c3c(C)ccnc3C(C)C)c3nc(-c4cc(C)ccc4F)c(F)cc23)C[C@H]1C (atropisomer, axis not shown; (M)) [Example 94-4, (M)-4-[(2S,5R)-2,5-dimethyl-4-prop-2-enoyl-piperazin-1-yl]-6-fluoro-7-(2-fluoro-5-methyl-phenyl)-1-(2-isopropyl-4-methyl-3-pyridyl)pyrido [2,3-d]pyrimidin-2-one]	0.222	0.218	> 7.5					
C=CC(=O)N1C[C@H](C)N(c2nc(=O)n(-c3c(C)ccnc3C(C)C)c3nc(-c4cc(C#CC)ccc4F)c(Cl)cc23)C[C@H]1C (atropisomer, axis not shown; (M)) [Example 92-39, (M)-6-Chloro-4-[(2S,5R)-2,5-dimethyl-4-prop-2-enoyl-piperazin-1-yl]-7-(2-fluoro-5-prop-1-ynyl-phenyl)-1-(2-isopropyl-4-methyl-3-pyridyl)pyrido [2,3-d]pyrimidin-2-one]	0.032	0.145	> 7.5					
C=CC(=O)N1C[C@H](C)N(c2nc(=O)n(-c3c(C)ccnc3C(C)C)c3nc(-c4ccccc4NC(C)=O)c(Cl)cc23)C[C@H]1C (atropisomer, axis not shown; (M)) [Example 92-18, (M)-N-[2-[6-Chloro-4-[(2S,5R)-2,5-dimethyl-4-prop-2-enoyl-piperazin-1-yl]-1-(2-isopropyl-4-methyl-3-pyridyl)-2-oxo-pyrido[2,3-d]pyrimidin-7-yl]phenyl] acetamide]	0.085	0.17	> 7.5					
C=CC(=O)N1CCN(c2nc(=O)n(CC(C)(C)C)c3nc(-c4ccccc4F)c(Cl)cc23)[C@@H](C)C1 [Example 106-2, 6-Chloro-1-(2,2-dimethylpropyl)-7-(2-fluorophenyl)-4-[(2S)-2-methyl-4-prop-2-enoyl-piperazin-1-yl]pyrido[2,3-d]pyrimidin-2-one]	1.01	5.31	> 7.5					
C=CC(=O)N1C[C@H](C)N(c2nc(=O)n(-c3c(C(C)C)nc(CN4CCC4)nc3C(C)C)c3nc(-c4ccccc4F)c(Cl)cc23)C[C@H]1C [Example 161, 1-[2-(Azetidin-1-ylmethyl)-4,6-diisopropyl-pyrimidin-5-yl]-6-chloro-4-[(2S,5R)-2,5-dimethyl-4-prop-2-enoyl-piperazin-1-yl]-7-(2-fluorophenyl)pyrido[2,3-d]pyrimidin-2-one]	0.294						0.061	> 7.5
C=CC(=O)N1C[C@H](C)N(c2nc(=O)n(-c3c(C)ccnc3C(C)C)c3nc(-c4cc(F)c(F)cc4N)c(Cl)cc23)C[C@H]1C (atropisomer, axis not shown; (M)) [Example 92-31, (M)-7-(2-Amino-4,5-difluoro-phenyl)-6-chloro-4-[(2S,5R)-2,5-dimethyl-4-prop-2-enoyl-piperazin-1-yl]-1-(2-isopropyl-4-methyl-3-pyridyl)pyrido [2,3-d]pyrimidin-2-one]	0.014	0.022	> 7.5					
C=CC(=O)N1C[C@H](C)N(c2nc(=O)n(-c3c(Cl)ncnc3C(C)C)c3nc(-c4ccccc4C)c(Cl)cc23)C[C@H]1C [Example 102-6, 6-Chloro-1-(4-chloro-6-isopropyl-pyrimidin-5-yl)-4-[(2S,5R)-2,5-dimethyl-4-prop-2-enoyl-piperazin-1-yl]-7-(o-tolyl)pyrido[2,3-d]pyrimidin-2-one]	0.066	0.063	> 7.5					
C=CC(=O)N1C[C@H](C)N(c2nc(=O)n(-c3c(C(C)C)nc(C#N)nc3C(C)C)c3nc(-c4ccccc4F)c(Cl)cc23)C[C@H]1C [Example 155, 5-[6-Chloro-4-[(2S,5R)-2,5-dimethyl-4-prop-2-enoyl-piperazin-1-yl]-7-(2-fluorophenyl)-2-oxo-pyrido[2,3-d]pyrimidin-1-yl]-4,6-diisopropyl-pyrimidine-2-carbonitrile]	0.104	0.063	2.59					
C=CC(=O)N1C[C@H](C)N(c2nc(=O)n(-c3c(C)ccnc3C(C)C)c3nc(-c4ccccc4NC(=O)C(F)(F)F)c(Cl)cc23)C[C@H]1C (atropisomer, axis not shown; (M)) [Example 129-5]	0.19	0.087	> 7.5					
C=CC(=O)N1C[C@H](C)N(c2nc(=O)n(-c3c(C)ccnc3C(C)C)c3nc(-c4ccccc4C(C)=O)c(Cl)cc23)C[C@H]1C (atropisomer, axis not shown; (M)) [Example 92-41, (M)-7-(2-Acetylphenyl)-6-chloro-4-[(2S,5R)-2,5-dimethyl-4-prop-2-enoyl-piperazin-1-yl]-1-(2-isopropyl-4-methyl-3-pyridyl)pyrido [2,3-d]pyrimidin-2-one]	0.117	0.075	3.75					
C=CC(=O)N1C[C@H](C)N(c2nc(=O)n(-c3c(Cl)ncnc3C(C)C)c3nc(-c4ccccc4F)c(Cl)cc23)C[C@H]1C (single isomer, unassigned) [Example 102-5-2]	0.173				0.873	> 7.5		
C=CC(=O)N1CCN(c2nc(=O)n(-c3c(C)ccnc3C(C)C)c3nc(-c4ccccc4F)c(Cl)cc23)CC1CC#N (atropisomer, axis not shown; (M)) [Example 145-2-2, (M)-2-[4-[6-Chloro-7-(2-fluorophenyl)-1-(2-isopropyl-4-methyl-3-pyridyl)-2-oxo-pyrido[2,3-d]pyrimidin-4-yl]-1-prop-2-enoyl-piperazin-2-yl]acetonitrile]	0.238				0.213	> 7.5		
C=CC(=O)N1C[C@@H](C)N(c2nc(=O)n(-c3c(C)ccnc3C(C)C)c3nc(-c4ccccc4F)c(Cl)nc23)[C@@H](C)C1 [Example 106-7-2, 6-Chloro-4-[(2R,6S)-2,6-dimethyl-4-prop-2-enoyl-piperazin-1-yl]-7-(2-fluorophenyl)-1-(2-isopropyl-4-methyl-3-pyridyl)pteridin-2-one]	0.129	0.271	> 7.5					
C=CC(=O)N1C[C@H](C)N(c2nc(=O)n3c4nc(c(Cl)cc24)-c2ccccc2C/C=C\Cc2ccccc2-3)C[C@H]1C (single isomer, unassigned) [Example 146-3-4]	7.96				1.26	> 7.5		
